Measurements from article PMC8279409, “Novel Mixed NOP/Opioid Receptor Peptide Agonists” (Journal of Medicinal Chemistry, 2021).
Read-outs that look alike come from different tables or passages of the source. Where a SMILES comes first, the peptide text is derived from it. Where no end group is shown, it is not given here. [ ]: non-standard residue; d: D form. Phe(4-NH2) = Nc1ccc(C[C@H](N)C(=O)O)cc1; Dmt = Cc1cc(O)cc(C)c1C[C@H](N)C(=O)O; Phg = N[C@H](C(=O)O)c1ccccc1; Dab = NCC[C@H](N)C(=O)O; Dap = NC[C@H](N)C(=O)O

Assays:
human NOP receptor = target: T1, human NOP receptor (Homo sapiens, UniProt P41146); assay: Calcium mobilization, NOP receptor; format: cell-based; details: for NOP pEC50 (CL95%) / NOP/mu CR (concentration ratio): Table 1 series; for NOP pEC50 (CL95%): CHO cells coexpressing human NOP and Gαqi5, Fluo-4 AM, FlexStation II, 37 °C, mean of at least three experiments in duplicate, CL95% in brackets; for NOP/mu CR (concentration ratio): calcium mobilization, NOP versus mu; for Emax: mean ± SEM of at least three experiments in duplicate, SEM
T1 construct: expressed in transfected cells; host or cells: CHO cells stably coexpressing the receptor and chimeric Gαqi5
T1 sequence (P41146 whole entry): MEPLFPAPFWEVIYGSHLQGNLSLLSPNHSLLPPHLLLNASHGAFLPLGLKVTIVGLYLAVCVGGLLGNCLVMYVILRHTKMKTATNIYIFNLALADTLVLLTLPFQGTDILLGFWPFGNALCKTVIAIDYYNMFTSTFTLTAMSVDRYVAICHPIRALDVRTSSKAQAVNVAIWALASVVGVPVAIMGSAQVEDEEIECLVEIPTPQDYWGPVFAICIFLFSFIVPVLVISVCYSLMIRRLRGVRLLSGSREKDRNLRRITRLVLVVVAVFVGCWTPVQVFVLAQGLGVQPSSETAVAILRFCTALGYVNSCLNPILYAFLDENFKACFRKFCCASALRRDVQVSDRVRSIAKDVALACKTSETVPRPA
Method: CHO cells stably coexpressing the human NOP or kappa or the mu receptor and the C-terminally modified Gαqi5 and CHO cells coexpressing the delta receptor and the GαqG66Di5 protein were generated and cultured as described previously.[45],[46] Cells were maintained in Dulbecco’s modified Eagle’s medium/nutrient mixture F-12 (DEMEM/F-12) supplemented with 10% FBS, 100 U/mL penicillin and 100 μg/mL streptomycin, 100 μg/mL hygromicin B, and 200 μg/mL G418 and cultured at 37 °C in 5% CO2 humidified air. Cells were seeded at a density of 50,000 cells/well into 96-well black, clear-bottom plates. The following day, the cells were incubated with Hanks’ balanced salt solution (HBSS) supplemented with 2.5 mM probenecid, 3 μM of the calcium-sensitive fluorescent dye Fluo-4 AM, and 0.01% pluronic acid for 30 min at 37 °C. After that time, the loading solution was aspirated and 100 μL/well of HBSS supplemented with 20 mM HEPES, 2.5 mM probenecid, and 500 μM brilliant black was added. Serial dilutions were carried out in HBSS/HEPES (20 mM) buffer (containing 0.02% BSA fraction V). After placing both plates (cell culture and master plate) into the fluorometric imaging plate reader FlexStation II (Molecular Devices, Sunnyvale, CA), fluorescence changes were measured. On-line additions were carried out in a volume of 50 μL/well. To facilitate drug diffusion into the wells, the present studies were performed at 37 °C. Maximum change in fluorescence, expressed as percent over the baseline fluorescence, was used to determine agonist response.
The pharmacological terminology adopted in this paper is consistent with IUPHAR recommendations.[59] All data are expressed as the mean ± standard error of the mean (SEM) of at least three experiments performed in duplicate. […] Concentration-response curves to agonists were fitted to the classical four-parameter logistic nonlinear regression model:
Effect = Baseline + (Emax – Baseline)/(1 + 10^(LogEC50 – Log[compound]) × Hillslope). Curve fitting was performed using PRISM 6.0 (GraphPad Software Inc., San Diego).

human mu receptor = target: T2, human mu receptor (Homo sapiens, UniProt P35372); assay: Calcium mobilization, mu opioid receptor; format: cell-based; details: for mu pEC50 (CL95%): Table 1 series, CHO cells coexpressing human mu receptor and Gαqi5, Fluo-4 AM, 37 °C, mean of at least three experiments in duplicate, CL95% in brackets; for pEC50_mu: molecular formula strings CSV, repeats calcium mobilization values of Tables 1-3; for activation at 10 µM: read-out: mu effect at 10 μM (crc incomplete), Table 1 series, mean ± SEM; for activation at 10 µM / Emax: percent over the baseline fluorescence, SEM; for Emax: mean ± SEM of at least three experiments in duplicate
T2 construct: expressed in transfected cells; host or cells: CHO cells stably coexpressing the receptor and chimeric Gαqi5
T2 sequence (P35372 whole entry): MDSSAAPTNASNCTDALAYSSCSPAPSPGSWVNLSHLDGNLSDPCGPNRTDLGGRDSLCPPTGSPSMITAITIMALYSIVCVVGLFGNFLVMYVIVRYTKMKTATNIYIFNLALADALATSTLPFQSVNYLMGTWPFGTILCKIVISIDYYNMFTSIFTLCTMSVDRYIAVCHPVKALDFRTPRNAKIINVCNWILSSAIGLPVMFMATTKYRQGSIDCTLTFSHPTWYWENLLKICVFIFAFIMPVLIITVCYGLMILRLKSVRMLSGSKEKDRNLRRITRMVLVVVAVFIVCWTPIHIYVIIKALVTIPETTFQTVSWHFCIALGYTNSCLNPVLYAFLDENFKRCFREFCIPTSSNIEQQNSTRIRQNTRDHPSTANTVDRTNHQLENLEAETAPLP

[1] = read-out: NOP Emax ± S.E.M., Table 1 series, maximum change in fluorescence as percent over the baseline fluorescence
[2] = read-out: NOP Emax ± S.E.M., Table 3 series, percent over the baseline fluorescence
[3] = read-out: mu Emax ± S.E.M., Table 3 series
[4] = read-out: mu Emax ± S.E.M, Table 1 series

With `C[C@H](NC(=O)CNC(=O)[C@H](CN)NC(=O)[C@H](Cc1ccccc1)NC(=O)CNC(=O)CNC(=O)[C@@H](N)Cc1ccc(O)cc1)C(=O)N[C@@H](CCCNC(=N)N)C(=O)N[C@@H](CCCCN)C(=O)N[C@@H](CO)C(=O)N[C@@H](C)C(=O)N[C@@H](CCCNC(=N)N)C(=O)N[C@@H](CCCCN)C(N)=O` [Compound 9, [Tyr^1,Dap^5]N/OFQ(1-13)-NH2] (H-YGGF[Dap]GARKSARK-NH2) the “NOP pEC50 (CL95%)” value (human NOP receptor) was 7.20 (6.95–7.45), the “NOP/mu CR (concentration ratio)” value (human NOP receptor) was 0.06 and the Emax (human NOP receptor; [1]) was 367 ± 9%. The “mu pEC50 (CL95%)” value (human mu receptor) was “crc incomplete; 10 μM: 144 ± 44”, the pEC50_mu (human mu receptor) was “crc incomplete” and the activation at 10 µM (human mu receptor) was 144 ± 44%.
With `Cc1cc(O)cc(C)c1C[C@H](N)C(=O)NCC(=O)NCC(=O)N[C@@H](Cc1ccccc1)C(=O)N[C@@H](Cc1ccc(N)cc1)C(=O)NCC(=O)N[C@@H](C)C(=O)N[C@@H](CCCNC(=N)N)C(=O)N[C@@H](CCCCN)C(=O)N[C@@H](CO)C(=O)N[C@@H](C)C(=O)N[C@@H](CCCNC(=N)N)C(=O)N[C@@H](CCCCN)C(N)=O` [Compound 34, [Dmt^1,(pNH2)Phe^5]N/OFQ(1-13)-NH2] (H-[Dmt]GGF[Phe(4-NH2)]GARKSARK-NH2) the Emax (human NOP receptor; [2]) was 258 ± 20% and the Emax (human mu receptor; [3]) was 358 ± 15%.
In the case of “YGGFKGARKSARK-NH2 [Compound 8, [Tyr^1,Lys^5]N/OFQ(1-13)-NH2]”, the “NOP pEC50 (CL95%)” value (human NOP receptor) is reported as 7.26 (6.74–7.78), the “NOP/mu CR (concentration ratio)” value (human NOP receptor) is reported as 0.05 and the Emax (human NOP receptor; [1]) is reported as 366 ± 6%. The “mu pEC50 (CL95%)” value (human mu receptor) was “crc incomplete; 10 μM: 113 ± 35”, the pEC50_mu (human mu receptor) was “crc incomplete” and the activation at 10 µM (human mu receptor) was 113 ± 35%.
`C[C@H](NC(=O)CNC(=O)[C@H](CCN)NC(=O)[C@H](Cc1ccccc1)NC(=O)CNC(=O)CNC(=O)[C@@H](N)Cc1ccc(O)cc1)C(=O)N[C@@H](CCCNC(=N)N)C(=O)N[C@@H](CCCCN)C(=O)N[C@@H](CO)C(=O)N[C@@H](C)C(=O)N[C@@H](CCCNC(=N)N)C(=O)N[C@@H](CCCCN)C(N)=O` [Compound 10, [Tyr^1,Dab^5]N/OFQ(1-13)-NH2] (H-YGGF[Dab]GARKSARK-NH2) was tested, and the “NOP pEC50 (CL95%)” value (human NOP receptor) was 6.43 (6.28–6.58), the “NOP/mu CR (concentration ratio)” value (human NOP receptor) was 0.37 and the Emax (human NOP receptor; [1]) was 340 ± 22%. For the same compound, the “mu pEC50 (CL95%)” value (human mu receptor) was “crc incomplete; 10 μM: 41 ± 4”, the pEC50_mu (human mu receptor) was “crc incomplete” and the activation at 10 µM (human mu receptor) was 41 ± 4%.
“YGGFLGARKSARK-NH2 [Compound 11, [Tyr^1,Leu^5]N/OFQ(1-13)-NH2]” was tested, and the “NOP pEC50 (CL95%)” value (human NOP receptor) was 8.03 (7.46–8.60), the “NOP/mu CR (concentration ratio)” value (human NOP receptor) was 0.01 and the Emax (human NOP receptor; [1]) was 339 ± 24%. For the same compound, the “mu pEC50 (CL95%)” value (human mu receptor) was 6.08 (5.95–6.21) and the Emax (human mu receptor; [4]) was 339 ± 25%.
`Cc1cc(O)cc(C)c1C[C@H](NC(=O)[C@H](Cc1ccccc1)NC(=O)CNC(=O)CNC(=O)[C@@H](N)Cc1c(C)cc(O)cc1C)C(=O)NCC(=O)N[C@@H](C)C(=O)N[C@@H](CCCNC(=N)N)C(=O)N[C@@H](CCCCN)C(=O)N[C@@H](CO)C(=O)N[C@@H](C)C(=O)N[C@@H](CCCNC(=N)N)C(=O)N[C@@H](CCCCN)C(N)=O` [Compound 35, [Dmt^1,5]N/OFQ(1-13)-NH2] (H-[Dmt]GGF[Dmt]GARKSARK-NH2) gave an Emax (human NOP receptor; [2]) of 270 ± 25% and an Emax (human mu receptor; [3]) of 354 ± 16%.
Work on `Cc1cc(O)cc(C)c1C[C@H](N)C(=O)NCC(=O)NCC(=O)N[C@@H](Cc1ccccc1)C(=O)N[C@H](C(=O)NCC(=O)N[C@@H](C)C(=O)N[C@@H](CCCNC(=N)N)C(=O)N[C@@H](CCCCN)C(=O)N[C@@H](CO)C(=O)N[C@@H](C)C(=O)N[C@@H](CCCNC(=N)N)C(=O)N[C@@H](CCCCN)C(N)=O)c1ccccc1` [Compound 32, [Dmt^1,Phg^5]N/OFQ(1-13)-NH2] (H-[Dmt]GGF[Phg]GARKSARK-NH2) yielded an Emax (human NOP receptor; [2]) of 282 ± 12% and an Emax (human mu receptor; [3]) of 339 ± 28%.
“YGGFYGARKSARK-NH2 [Compound 14, [Tyr^1,5]N/OFQ(1-13)-NH2]” was tested, and the “NOP pEC50 (CL95%)” value (human NOP receptor) was 7.07 (6.68–7.46), the “NOP/mu CR (concentration ratio)” value (human NOP receptor) was 0.49 and the Emax (human NOP receptor; [1]) was 332 ± 19%. The “mu pEC50 (CL95%)” value (human mu receptor) was 6.76 (6.34–7.18) and the Emax (human mu receptor; [4]) was 357 ± 21%.
